Source: patent publication US20060252727A1, “Medicinal compositions and therapeutic methods for treating arthritis and other painful conditions” (priority 2001, published 2006)
Marks after values point to notes of the source that are not given here.

Legend:
[1] = system: mouse hot plate jumping threshold; assay: Analgesic activity, mouse hot plate test; type: in vivo
Text: Analgesic activity of DPA using the mouse hot plate test. The mouse hot plate is a generally recognized method for evaluating analgesic drugs that act on the endorphin system, e.g., morphine-like drugs and drugs that increase endorphin levels, e.g., DPA. Such drugs are useful for treating many kinds of painful conditions, including arthritis, headache, low back pain, musculoskeletal pain, pre-menstrual pain, and dental pain.
In this method, groups of mice (6 albino mice per group, weighing between 22 and 25 grams) are individually placed on a hot plate at 55° C. and a beaker is placed over the mouse. The time for the mouse to jump in an attempt to escape the painful condition is recorded. An analgesic substance is one which increases the threshold to pain, thereby permitting the mouse to remain on the hot plate for longer times. The effect of the drug is compared to that of a saline control. DPA at different doses was injected intra-peritoneally into the mice 2 hours before they were placed on the hot plate, and jumping time determined over the next 1-2 hours. The effect of DPA was compared with that of an injection of saline.
For studies involving combinations of drugs, the combination was injected at the same time. In the studies shown below, the second drug consisted of indomethacin, diclofenac, or acetaminophen. Each of these drugs is used for treating arthritis, as well as many other painful conditions.

[2] = system: carrageenan swelling of the rat paw; assay: Anti-inflammatory activity, rat paw carrageenan method; type: in vivo
Experimental: Anti-inflammatory activity of DPA using the rat paw carrageenan method. This is a generally recognized method for evaluating anti-inflammatory drugs of the aspirin/NSAID (as used throughout this application NSAID refers to a non-steroidal, anti-inflammatory drug) type or those that counteract the action of the prostaglandins. Such drugs are useful for treating conditions such as arthritis in animals and humans. In this method, the paw of the rat is injected with carrageenan, which causes swelling of the paw due to the accumulation of fluid. […] In this study, DPA was administered by various routes and times into groups of rats (6 male albino rats per group-weight approximately 250 grams) before carrageenan and the degree of swelling was measured by the extent of displacement of water when the paw was immersed into a calibrated cylinder. A placebo consisting of saline solution was similarly administered.

[3] = system: pain in patients with arthritis and other skeletal diseases; assay: Efficacy of DPA in humans with arthritis and other musculoskeletal diseases (open-label, cross-over); type: in vivo, human
Experimental: 4. Efficacy of DPA treatment for arthritis and a variety of other musculoskeletal diseases; human studies. Forty-three patients were studied in an open-label, cross-over procedure. Of these, 32 had arthritis. All of the patients had previously been given many treatments, without success, in relieving their pain. Pre-DPA administration treatments used included such potent drugs as Percodan, Darvocet, Valium, and aspirin, as well as acupuncture. Prior to giving DPA 800 mg/day by mouth, all treatments were stopped. Patients were given a card on which they scored their degree of pain, on a scale of 1-4; 1 indicated no relief, 2 indicated approximately 25% relief, 3 indicated approximately 50% relief, and 4 indicated complete relief.

PBQ writhing in mice [4] = assay: Anti-inflammatory activity, mouse phenylbenzylquinone (PBQ) writhing test; type: in vivo; settings: for Number of writhes: counted over 20 minutes
Experimental: Anti-inflammatory activity of DPA using the mouse phenylbenzylquinone (PBQ) writhing test. This is a generally recognized method for evaluating anti-inflammatory drugs of the aspirin/NSAID type, i.e. those drugs which counteract the action of the prostaglandins. Such drugs are useful for treating conditions such as arthritis in animals and humans.
In this method, a solution of PBQ was injected subcutaneously into groups of 6 mice (male, albino, 22-25 grams). Within a few minutes, the mice began to writhe. DPA was injected intra-peritoneally or given by mouth at different times prior to PBQ. The number of writhes was counted over a period of 20 minutes. The effects of DPA were compared to that of similarly administered saline control.

PBQ writhing in mice [5] = assay: as above; type: in vivo; settings: for Number of writhes: counted over 20 minutes; remark: listed apart in the source
[6] = NSAID alone, 20 mg/kg, hot plate at 55° C.
[7] = DPA 800 mg/day by mouth, 43 patients, 32 with arthritis, self-scored pain relief

COc1ccc2c(c1)c(CC(=O)O)c(C)n2C(=O)c1ccc(Cl)cc1 [Indomethacin, indomethacin, reference compound]
Increase in the threshold to jumping, compared to control [1, 6]: 0

N[C@H](Cc1ccccc1)C(=O)O [DPA, D-phenylalanine]
% Inhibition of swelling ([2]; oral administration, 150 minutes before carrageenan, 125 mg/kg): 7%
% Inhibition of swelling ([2]; oral administration, 150 minutes before carrageenan, 250 mg/kg): 10%
% Inhibition of swelling ([2]; oral administration, 150 minutes before carrageenan, 500 mg/kg): 24%
% Inhibition of swelling ([2]; oral administration, 150 minutes before carrageenan, 1000 mg/kg): 62%
% Inhibition of swelling ([2]; oral administration, 150 minutes before carrageenan, 1500 mg/kg): 79%
% Inhibition of swelling ([2]; subcutaneous injection, 120 minutes before carrageenan, 8 mg/kg): 15%
% Inhibition of swelling ([2]; subcutaneous injection, 120 minutes before carrageenan, 125 mg/kg): 37%
% Inhibition of swelling ([2]; subcutaneous injection, 120 minutes before carrageenan, 500 mg/kg): 35%
% Inhibition of swelling ([2]; subcutaneous injection, 6 hours before carrageenan, dose 62.5): 35%
% Inhibition of swelling ([2]; subcutaneous injection, 6 hours before carrageenan, dose 250): 36%
% Inhibition of swelling ([2]; subcutaneous injection, 6 hours before carrageenan, dose 500): 75%
Increase in the threshold to jumping, compared to control ([1]; DPA 250 mg/kg intra-peritoneally, 2 hours before hot plate at 55° C.): 3-fold
increase of the threshold time to jump, as compared to saline control ([1]; mouse hot plate, as shown in Table 3): three-fold
Complete relief of pain (number of patients) [3, 7]: 2
Excellent relief of pain (number of patients) [3, 7]: 7
Moderate relief of pain (number of patients) [3, 7]: 19
No relief of pain (number of patients) ([3]; DPA 800 mg/day by mouth, 43 patients, most of these took DPA for only 1-2 weeks): 15*
effect on pain in humans ([3]; DPA alone, 800 mg/day): successfully decrease
% inhibition of writhing (PBQ writhing in mice [4]; intra-peritoneal injection, 2 hours before PBQ, 250 mg/kg): 73%
Number of writhes (PBQ writhing in mice [4]; intra-peritoneal injection, 2 hours before PBQ, 250 mg/kg, saline 125): 34
% inhibition of writhing (PBQ writhing in mice [4]; intra-peritoneal injection, 2 hours before PBQ, 500 mg/kg): 90%
Number of writhes (PBQ writhing in mice [4]; intra-peritoneal injection, 2 hours before PBQ, 500 mg/kg, saline 125): 13
% inhibition of writhing (PBQ writhing in mice [4]; oral administration, 2.5 hours before PBQ, 250 mg/kg): 10%
Number of writhes (PBQ writhing in mice [4]; oral administration, 2.5 hours before PBQ, 250 mg/kg, saline 148): 133
Number of writhes (PBQ writhing in mice [4]; oral administration, 2.5 hours before PBQ, 500 mg/kg, saline 148): 110
% inhibition of writhing (PBQ writhing in mice [4]; oral administration, 2.5 hours before PBQ, 1000 mg/kg): 62%
Number of writhes (PBQ writhing in mice [4]; oral administration, 2.5 hours before PBQ, 1000 mg/kg, saline 148): 56
% inhibition of writhing (PBQ writhing in mice [5]; oral administration, 2.5 hours before PBQ, 500 mg/kg): 24%
% inhibition of writhing (PBQ writhing in mice [5]; subcutaneous injection, 6 hours before PBQ, 62.5 mg/kg): 35%
Number of writhes (PBQ writhing in mice [5]; subcutaneous injection, 6 hours before PBQ, 62.5 mg/kg, saline 166): 108
% inhibition of writhing (PBQ writhing in mice [5]; subcutaneous injection, 6 hours before PBQ, 250 mg/kg): 36%
Number of writhes (PBQ writhing in mice [5]; subcutaneous injection, 6 hours before PBQ, 250 mg/kg, saline 166): 106
% inhibition of writhing (PBQ writhing in mice [5]; subcutaneous injection, 6 hours before PBQ, 500 mg/kg): 75%
Number of writhes (PBQ writhing in mice [5]; subcutaneous injection, 6 hours before PBQ, 500 mg/kg, saline 110): 28

O=C(O)Cc1ccccc1Nc1c(Cl)cccc1Cl [Diclofenac, diclofenac, reference compound]
Increase in the threshold to jumping, compared to control [1, 6]: 0
